Seven substances from patent publication US10487119B2, “Peptides for diagnosis and treatment of cancer” (National Taiwan University, priority 2013, dated 2019) can be followed below.

Where two headings read alike, the source gives them in different places. No end group written: not given here.

One data set relates to NPC cells. In words: Addition of targeted peptide to NPC cell culture medium. It counts as cell-based. The following applies: 1 mg/mL in NPC cells culture medium, sustained to 10 days. An excerpt:
Apparently, this finding indicate that the protein bound by the targeted peptide is not a receptor protein or the like thereof.

The subject of a further data set is NPC-TW07 cells. The data set is described as follows: Flow cytometry analysis of FITC-peptide binding to cells. It counts as cell-based. An excerpt: (§1) The cultured cells, including nasopharyngeal carcinoma (NPC-TW01 and NPC-TW07), non-small cell lung cancer (H1299 and A549), neuroblastoma (Be2C), breast cancer (MB157) and immortalized embryonic renal epithelia (TEKID) ([…]) are subjected to flow cytometer (FACSCAN, BD Co., U.S.A.) after the FITC (Fluorescein isothiocyanate)-targeted peptide SEQ ID NO:1 treatment. Simultaneously, FITC-control peptide, FITC-biotin-targeted peptide SEQ ID NO: 1 (B-P) and FITC-biotin-control peptide (B-C-P) are used for flow cytometry comparison.

For a further data set, the system named is HepG2 xenografts. The data set is described as follows: Peptide targeted chemotherapy of mice bearing HepG2 xenografts. The following applies: SCID mice bearing hepatoma xenograft. It is filed as in vivo. As for the experimental part: For the peptide targeted chemotherapy, 40 male SCID mice were transplanted with […] HepG2 cells into their right thigh subcutaneously; after 10 days, solid xenografts measuring approximately 0.8 cm in diameter were found in each mouse, then they were divided into four groups (each group included 10 mice). The first group was injected with PBS; the second and third groups were injected either with L-P-L-D or PC5-52-P-L-D, separately. Each dose contained 2 mg doxorubicin/kg of mouse body weight. The fourth group mice were injected with L-P-L-D (1 mg doxorubicin/kg) mixed with PC5-52-P-L-D (1 mg doxorubicin/kg). All doses were injected through the tail vein, once per week, for a total of 4 injections, and all animals were sacrificed at day 35. The body weight and tumor size were measured weekly. All animals were examined by routine autopsy. The xenograft tumors and all visceral organs were examined by histopathological sections after stained by hematoxylin and eosin. The pegylated peptide was linked to L-D in our laboratory according to our previously published methods (Cancer Res. 64:8002-8008, Nov. 1, 2004). For comparison, another animal experiment was performed. In the later experiment, the present invention used NSG (NOD-SCID immunodeficiency gamma strain animals); the experiments were totally similar to the NOD SCID mice case. […]

The test system of data set [1] is normal peripheral blood cells. The data set is described as follows: Prussian blue staining of normal peripheral blood smears. It is filed as cell-based, human. An excerpt: The present invention prepared L-peptide-linked dextran-coated iron oxide nanoparticles, such as, L-P-Fe3O4, SP-94-P-Fe3O4, PC5-52-P-Fe3O4 and control-peptide-Fe3O4 nanoparticles (C-P-Fe3O4). The dextran coated-Fe3O4 nanoparticles (Dex-Fe3O4) were purchased from MAGQU Company. This company conjugates L-peptide, SP-94-peptide and PC5-52-peptide, separately, to the Dex-Fe3O4 nanoparticles. Each Dex-Fe3O4 can be linked with more than 10 peptide molecules. For localization of the peptide targeted protein in HepG2 and Huh-7 cell lines, the present invention first have to check whether our peptide can also bind to the mononuclear cells in the human peripheral blood. The mononuclear cells were obtained from the normal personal blood using Histopaque-1077 solution (SIGMA, St, Louis, Mo. U.S.A).
(§2) After the blood smears were fixed by formaldehyde, they were treated with or without Triton X-100 detergent and then stained with L-P-Fe3O4, SP-94-P-Fe3O4 or Control-P-Fe3O4 (C-P-Fe3O4) (40 μg/mL) and subjected to Prussian blue reaction with nuclear fast red contrast staining. Using the similar peptide histochemical procedure, the HepG2 and Huh-7 tumor cells were also stained. But in addition to the L-P-Fe3O4 and SP-94-P-Fe3O4, a ratio of 1:1 of L-P-Fe3O4: SP-94-P-Fe3O4 were mixed and used to stain the HepG2 and Huh-7 tumor cells.

In a further data set the test system is blood monocytes. In words: Prussian blue staining of blood monocytes. The following applies: 1.0 hr and 37° C. for 4 hr. It counts as cell-based.
For data set [2], the system named is hepatocellular carcinoma surgical specimens. In words: Peptide histochemistry of hepatocellular carcinoma (HCC) surgical specimens. Also noted: species or system human. The following applies: for Prussian blue staining pattern in HCC surgical sections: 40 μg per mL, overnight; for Average percentage of stained tumor cell number 25-50% / Average percentage of stained tumor cell number <25% / Average percentage of stained tumor cell number >75%: N = 30, ten HPF (x 400). Here is the method: For hepatocellular carcinoma surgical specimens, after the deparaffinization of the paraffin-embedded sections and retrieval of targeted protein molecule, as part of the routine immunohistochemistry described as above-mentioned, the sections were incubated overnight with (a) The L-P-Fe3O4 (40 μg per mL); (b) SP-94-P-Fe3O4 (40 μg/mL); (c) one to one ratio of (a) and (b), then with routine Prussian blue reagents, followed by a counter staining for 2 min with nuclear fast red solution. The present invention has used this method to examine 30 hepatocellular carcinoma surgical specimens without difficulty. To count the positive stained cell number of the Prussian blue stained cells in each paraffin section, which are counted 10 high power fields (×400).

For data set [3], the system named is breast cancer surgical specimens. The data set is described as follows: Peptide histochemical localization in breast cancer surgical specimens. Also noted: species or system human.
Description: (§3) The sections are incubated overnight at 4° C. with the P-Dex-Fe3O4 nanoparticles, and washed with PBS, then are incubated for 15-30 min with routine Prussian blue reagent (containing 2% potassium ferricyanide (Sigma-aldrich.com. St Louis Mo., U.S.A.) and 0.5 N HCl in dH2O=1:1), followed by counterstaining for 5 min with nuclear fast red solution, washed with water, and mounted with 50% glycerol directly or with balsam after alcohol dehydration.
Data set [4] deals with breast cancer cells (MDA-MB-231). The data set is described as follows: Prussian blue staining of breast cancer cell line. It is filed as cell-based.
The next data set deals with Huh-7 tumor cells. In words: Prussian blue staining of formalin-fixed, Triton X-100 treated HCC cell line. It counts as cell-based. Here is the method:
as §2

The next data set relates to HepG2 tumor cells. The description is as above. It counts as cell-based. Here is the method: as §2
The test system of a further data set is NPC biopsy specimens. In words: Peptide histochemical localization in formalin-fixed paraffin-embedded NPC biopsy specimens. Also noted: species or system human. The note with it: overnight at 4° C.
In data set [5] the test system is hepatoma (Hep G2) cell line. The data set is described as follows: Prussian blue staining of hepatoma cell line. It is filed as cell-based. An excerpt:
In addition to the targeted peptide SEQ ID NO: 1, the present invention also provides another targeted peptide SEQ ID NO: 2 for synthesizing the targeted peptide SEQ ID NO: 2-linked dextran-coated iron oxide nanoparticles.

In data set [6] the test system is hepatoma surgical specimens. In words: Peptide histochemical localization in hepatoma surgical specimens. Also noted: species or system human. The note with it: for Prussian blue reaction product in tumor cells of hepatoma sections: formalin-fixed paraffin-embedded. An excerpt:
Peptide histochemical diagnosis of the present invention can be applied to hepatoma surgical specimens.

In data set [7] the test system is pancreatic cancer (Pan 1) cell line. The data set is described as follows: Prussian blue staining of pancreatic cancer cell line. It is filed as cell-based.
Description: (§4) Blood monocytes, hepatoma (Hep G2) and pancreatic cancer (Pan 1) cell lines are incubated with P-Dex-Fe3O4 nanoparticle for 1.0 hr and 37° C. for 4 hr, and then are stained with Prussian blue reagent.
The subject of a further data set is NPC cells (NPC-TW01). In words: Prussian blue staining of cultured NPC cells incubated with peptide-linked iron oxide nanoparticles. It is filed as cell-based. The note with it: 4° C. for 1.0 hr and 37° C. for 4 hr. An excerpt:
The dextran coated-Fe3O4 is linked with the targeted peptide SEQ ID NO:1 or the FITC-targeted peptide SEQ ID NO:1 by the MagQu Company. Dextran is used as the hydrophilic surfactant layer. The iron oxide fluid with the desired concentration is available by diluting the highly concentrated iron oxide fluid with a pH 7.4 phosphate buffered saline (PBS) solution. […] Cells are washed in a 2% fetal bovine serum in PBS. After fixation, the binding ability between the targeted peptide SEQ ID NO: 1 and tumor cells can be observed by Prussian blue reagent; each iron oxide nanoparticle is bound by approximately above 10 targeted peptides.

Data set [8] relates to pancreatic cancer sections. The data set is described as follows: Peptide histochemical localization in pancreatic surgical specimens. Also noted: species or system human. The following applies: formalin-fixed paraffin-embedded. An excerpt: Peptide histochemical diagnosis of the present invention can be applied to pancreatic surgical specimens, ether the targeted peptide is SEQ ID NO: 1 or SEQ ID NO: 2.

Data set [9] deals with non-small cell lung cancer (A549) cells. The data set is described as follows: Flow cytometry analysis of FITC-peptide binding to cells. It counts as cell-based.
Text: as §1
(In general: Flow cytometry measures light scatter and fluorescence of single cells or particles in a stream.)

Data set [10] deals with breast cancer (MB157) cells. Described as above. It is filed as cell-based.
Text: as §1

The test system of data set [11] is neuroblastoma (Be2C) cells. The data set is described as above. It counts as cell-based.
Text: as §1

Data set [12] relates to non-small cell lung cancer (H1299) cells. The description is as above. It is filed as cell-based.
Text: as §1

The subject of the next data set is NPC-TW01 cells. The description is as above. It is filed as cell-based.
Text: as §1

Data set [13] relates to immortalized embryonic renal cell line (293T). The data set is described as above. It is filed as cell-based, human. The following applies: 293T immortalized renal cell line.
Text: as §1

Data set [14] deals with hepatoma and pancreatic cancer cells. In words: FITC-peptide binding to hepatoma and pancreatic cancer cells. It is filed as cell-based.

Description for NPC biopsy specimens: as §3
Description for blood monocytes: as §4

As to “targeted peptide SEQ ID NO: 1: 12 amino acid targeted peptide (L-peptide) obtained from nasopharyngeal carcinoma (RLLDTNRPLLPY)”, the “change of tumor cell morphology and behavior” value with NPC cells is “no any specific change of tumor cell morphology and behavior”.

In the case of “FITC-linked control peptide SEQ ID NO: 3: FITC-labelled control peptide (RLLDTNRPLGGG; also: FITC label) [reference compound]”, the “binding to NPC-TW07 cells (flow cytometry histogram)” value in the data set on NPC-TW07 cells was “very weak binding activity”.

With “control peptide (RLLDTNRPLGGG; also: FITC or biotin label)”, in the data set with HepG2 xenografts, the “adverse event / visceral organs” value is reported as “the visceral organs revealed marked apoptotic change” and the “tumor growth / xenograft size” value is recorded as “the xenograft size was also decreased”.

Regarding P-Dex-Fe3O4 (RLLDTNRPLLPY), in data set [1] (with Triton X-100), the “Prussian blue reaction product in fixed blood smears treated with Triton X-100” value is “the mononuclear cells but not red blood cells showed blue reaction product in their cytoplasm”. The “Prussian blue reaction product in blood smears fixed in formalin” value in data set [1] (without Triton X-100) is reported as “no reaction product was seen”. The “Prussian blue reaction product in blood monocytes” value in the data set on blood monocytes is listed as “no reaction product”. Further, in data set [2], the “Prussian blue staining pattern in HCC surgical sections” value is reported as “the Prussian blue reaction product was easily identified in the tumor cells in stained sections”, the “Average percentage of stained tumor cell number 25-50%” value is 7 cases, the “Average percentage of stained tumor cell number <25%” value came to 6 cases and the “Average percentage of stained tumor cell number >75%” value came out at 17 cases. For the same substance, the “Prussian blue reaction product in tumor cells from breast cancer metastatic axillary lymph nodes” value in data set [3] is recorded as “reveal blue reaction product”. For the same substance, in [3] (breast cancer sections), the “Prussian blue reaction product in stromal regions in tumor nests” value is reported as “no blue reaction product”. Besides, in [3] (formalin-fixed paraffin-embedded, specimens more than 1 cm in diameter), the “Prussian blue reaction product in breast cancer sections” value is on record as “show the Prussian blue reaction products”. Moreover, the “Prussian blue reaction product in breast cancer cells” value in data set [4] is “the reaction products appear in most of the cytoplasm of breast cancer cells”. For the same substance, the “Prussian blue stained Huh-7 tumor cells” value in the data set on Huh-7 tumor cells was “stained cell number is somewhat a little more than that of SP-94-P-Fe3O4 stained case”. Further, the “Prussian blue stained HepG2 tumor cells” value in the data set with HepG2 tumor cells is recorded as “many tumor cells were stained by a blue reaction product”. For the same substance, the “Prussian blue reaction product in tumor cells of NPC biopsy sections” value with NPC biopsy specimens is recorded as “the Prussian blue reaction product is easily identified in the tumor cells of stained sections”. The “Prussian blue reaction product in hepatoma cell line” value in data set [5] is “show blue reaction products”. Moreover, the “Prussian blue reaction product in hepatoma cell line” value in [5] (listed as targeted peptide SEQ ID NO:1-linked dextran-coated iron oxide nanoparticles) is listed as “blue reaction product”. In addition, the “Prussian blue reaction product in tumor cells of hepatoma sections” value in data set [6] is recorded as “show in single infiltrating tumor cells”. The “Prussian blue reaction product in normal cells of hepatoma sections” value in [6] (normal cells compressed by tumor cells) was “the blue reaction products do not show in the normal cells”. Besides, the “Prussian blue reaction product in pancreatic cancer cell line” value in [7] is “show blue reaction products”. Moreover, the “Prussian blue reaction product in NPC cells” value in the data set on NPC cells (NPC-TW01) is “the reaction products are seen in the cytoplasm of a majority of the tumor cells”. In addition, in data set [8], the “Prussian blue reaction product in pancreatic cancer sections” value is “all show the reaction products”.

“FITC-targeted peptide SEQ ID NO: 1: fluorescein isothiocyanate-labelled targeted peptide SEQ ID NO:1 (RLLDTNRPLLPY; also: FITC label)”: in data set [9], the “binding to A549 cells (flow cytometry)” value is reported as “a clear binding peak”. Besides, in data set [10], the “binding to MB157 cells (flow cytometry)” value is “a clear binding peak”. For the same substance, in [11], the “binding to Be2C cells (flow cytometry)” value is reported as “a clear binding peak”. For the same substance, in data set [12], the “binding to H1299 cells (flow cytometry)” value was “a clear binding peak”. Besides, the “binding to NPC-TW01 cells (flow cytometry)” value with NPC-TW01 cells is “a clear binding peak”. Moreover, in the data set on NPC-TW07 cells, the “binding to NPC-TW07 cells (flow cytometry histogram)” value was “a clear peak is found in the histogram”. Further, in [13], the “binding to 293T cells (flow cytometry)” value was “without showing any binding phenomenon”.

SP-94-P-Fe3O4 (SFSIIHTPILPL): in [2], the “Prussian blue staining pattern in HCC surgical sections” value is “the staining pattern was the same as L-P-Fe3O4 staining”, the “Average percentage of stained tumor cell number 25-50%” value stood at 9 cases, the “Average percentage of stained tumor cell number <25%” value stood at 5 cases and the “Average percentage of stained tumor cell number >75%” value is recorded as 16 cases. Further, the “Prussian blue stained HepG2 tumor cells” value in the data set on HepG2 tumor cells is “the stained cell number was lower than that of the L-P-Fe3O4 treated case”. The “Prussian blue reaction product in hepatoma cell line” value in [5] is “blue reaction product”. In data set [6], the “Prussian blue reaction product in tumor cells of hepatoma sections” value is recorded as “the Prussian blue products can also be observed in the tumor cells”. The “Prussian blue reaction product in pancreatic cancer sections” value in [8] was “all show the reaction products”.

Turning to “FITC-targeted peptide SEQ ID NO: 2: FITC-labelled targeted peptide SEQ ID NO: 2 (SFSIIHTPILPL; also: FITC label)”, the “binding to hepatoma and pancreatic cancer cells” value in [14] is “can be used to bind to hepatoma and pancreatic cancer cells”.
